Test results from US10954269B2, “Anti-inflammatory tripeptides” (Dr. August Wolff Gmbh & Co. KG Arzneimittel, priority 2013, dated 2021).

How the values were obtained:
primary human T-cells = assay: Cytokine secretion on protein level in activated primary human T-cells (13-plex FACS / Luminex, supernatant); assay type: cell-based; settings: for IL-1 cytokine concentration / IL-2 cytokine concentration / IL-4 cytokine concentration / IL-5 cytokine concentration / IL-6 cytokine concentration / IL-9 cytokine concentration / IL-10 cytokine concentration / IL-12p70 cytokine concentration / IL-13 cytokine concentration / IL-17 cytokine concentration / IL-22 cytokine concentration / TNF-α cytokine concentration / INF-α cytokine concentration: substance 10^−9M
Procedure, shortened: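 Primary T-cells from peripheral blood of healthy volunteers, or HaCaT cells, were activated with PMA/Ionomycin or IFN-γ for 48 h and treated with tripeptides. Supernatants were collected 48 h and 72 h after stimulation and cytokines (IL-1, IL-2, IL-6, IL-12p70, IL-17, IFN-γ, TNF-α) were measured by 13-plex FACS.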

[1] = tested on: human keratinocyte cell line (HaCaT); assay: Cytokine secretion on protein level in activated human keratinocyte cell line HaCaT (13-plex FACS / Luminex, supernatant); assay type: cell-based; settings: for IL-1 cytokine concentration / IL-2 cytokine concentration / IL-4 cytokine concentration / IL-5 cytokine concentration / IL-6 cytokine concentration / IL-9 cytokine concentration / IL-10 cytokine concentration / IL-12p70 cytokine concentration / IL-13 cytokine concentration / IL-17 cytokine concentration / IL-22 cytokine concentration / TNF-α cytokine concentration / IFN-γ cytokine concentration: substance 10^−9M
Procedure, shortened: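 First, T-cells are isolated from healthy donors' blood. Next, they and HaCaT keratinocytes are activated for 48 h with PMA/Ionomycin or IFN-γ in the presence of tripeptides. Finally, secreted cytokines are quantified in supernatants by 13-plex FACS at 48 and 72 h.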

primary murine T-cells = assay: Cytokine secretion on protein level in activated primary murine T-cells (13-plex FACS / Luminex, supernatant); assay type: cell-based, C57BL/6 mice; settings: for IL-1 cytokine concentration / IL-2 cytokine concentration / IL-4 cytokine concentration / IL-5 cytokine concentration / IL-6 cytokine concentration / IL-10 cytokine concentration / IL-13 cytokine concentration / IL-17 cytokine concentration / IL-21 cytokine concentration / IL-22 cytokine concentration / IL-27 cytokine concentration / TNF-α cytokine concentration / IFN-γ cytokine concentration: substance 10^−9M
Procedure, shortened: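 T-cells from secondary lymphatic organs of naïve C57BL/6 mice, stimulated with PMA/Ionomycin or IFN-γ; supernatant cytokines measured by 13-plex FACS 48 h and 72 h after stimulation. In another run, PMA/Ionomycin-stimulated cells received compounds at 10^−7, 10^−9 and 10^−11 M, with IFN-γ, IL-17 and IL-10 measured by Luminex.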

[2] = primary human T-cells stimulated with IFN-γ
[3] = primary human T-cells stimulated with PBS
[4] = primary human T-cells stimulated with PMA/Ionomycin
[5] = HaCaT stimulated with PMA/Ionomycin
[6] = primary murine T-cells stimulated with IFN-γ
[7] = primary murine T-cells stimulated with PBS
[8] = primary murine T-cells stimulated with PMA/Ionomycin

Q: Which results are given for H-(L)-Nle-(L)-Pro-Aib-OH [Example 12]?
A: secretion / expression of pro-inflammatory cytokines (supernatant) (primary human T-cells; activated primary human T-cells): able to reduce; IL-1 cytokine concentration (primary human T-cells; [2]): 44.77 pg/mL; IL-2 cytokine concentration (primary human T-cells; [2]): 0 pg/mL; IL-4 cytokine concentration (primary human T-cells; [2]): 0 pg/mL; IL-5 cytokine concentration (primary human T-cells; [2]): 0 pg/mL; IL-6 cytokine concentration (primary human T-cells; [2]): 60.44 pg/mL; IL-9 cytokine concentration (primary human T-cells; [2]): 7.67 pg/mL; IL-10 cytokine concentration (primary human T-cells; [2]): 84.25 pg/mL; IL-12p70 cytokine concentration (primary human T-cells; [2]): 0 pg/mL; IL-13 cytokine concentration (primary human T-cells; [2]): 0 pg/mL; IL-17 cytokine concentration (primary human T-cells; [2]): 0 pg/mL; IL-22 cytokine concentration (primary human T-cells; [2]): 0 pg/mL; TNF-α cytokine concentration (primary human T-cells; [2]): 41.38 pg/mL; IL-1 cytokine concentration (primary human T-cells; [3]): 0 pg/mL; IL-2 cytokine concentration (primary human T-cells; [3]): 0 pg/mL; IL-4 cytokine concentration (primary human T-cells; [3]): 0 pg/mL; IL-5 cytokine concentration (primary human T-cells; [3]): 0 pg/mL; IL-6 cytokine concentration (primary human T-cells; [3]): 91.86 pg/mL; IL-9 cytokine concentration (primary human T-cells; [3]): 0 pg/mL; IL-10 cytokine concentration (primary human T-cells; [3]): 189.65 pg/mL; IL-12p70 cytokine concentration (primary human T-cells; [3]): 0 pg/mL; IL-13 cytokine concentration (primary human T-cells; [3]): 0 pg/mL; IL-17 cytokine concentration (primary human T-cells; [3]): 104.68 pg/mL; IL-22 cytokine concentration (primary human T-cells; [3]): 0 pg/mL; INF-α cytokine concentration (primary human T-cells; [3]): 0 pg/mL; TNF-α cytokine concentration (primary human T-cells; [3]): 41.38 pg/mL; IL-1 cytokine concentration (primary human T-cells; [4]): 548.85 pg/mL; IL-2 cytokine concentration (primary human T-cells; [4]): 2751.28 pg/mL; IL-4 cytokine concentration (primary human T-cells; [4]): 73.38 pg/mL; IL-5 cytokine concentration (primary human T-cells; [4]): 328.24 pg/mL; IL-6 cytokine concentration (primary human T-cells; [4]): 1046.79 pg/mL; IL-9 cytokine concentration (primary human T-cells; [4]): 286.89 pg/mL; IL-10 cytokine concentration (primary human T-cells; [4]): 992.02 pg/mL; IL-12p70 cytokine concentration (primary human T-cells; [4]): 0 pg/mL; IL-13 cytokine concentration (primary human T-cells; [4]): 1026.08 pg/mL; IL-17 cytokine concentration (primary human T-cells; [4]): 1355.07 pg/mL; IL-22 cytokine concentration (primary human T-cells; [4]): 0 pg/mL; INF-α cytokine concentration (primary human T-cells; [4]): 9454.26 pg/mL; TNF-α cytokine concentration (primary human T-cells; [4]): 2985.72 pg/mL; activity (reduction of pro-inflammatory cytokines) relative to K(D)PT (primary human T-cells; second experiment, all three cellular models): comparable; IL-1 cytokine concentration ([1]; HaCaT stimulated with IFN-γ): 9.31 pg/mL; IL-2 cytokine concentration ([1]; HaCaT stimulated with IFN-γ): 0 pg/mL; IL-4 cytokine concentration ([1]; HaCaT stimulated with IFN-γ): 69.91 pg/mL; IL-5 cytokine concentration ([1]; HaCaT stimulated with IFN-γ): 0 pg/mL; IL-6 cytokine concentration ([1]; HaCaT stimulated with IFN-γ): 297.09 pg/mL; IL-9 cytokine concentration ([1]; HaCaT stimulated with IFN-γ): 0 pg/mL; IL-10 cytokine concentration ([1]; HaCaT stimulated with IFN-γ): 0 pg/mL; IL-12p70 cytokine concentration ([1]; HaCaT stimulated with IFN-γ): 0 pg/mL; IL-13 cytokine concentration ([1]; HaCaT stimulated with IFN-γ): 195.68 pg/mL; IL-17 cytokine concentration ([1]; HaCaT stimulated with IFN-γ): 56.13 pg/mL; IL-22 cytokine concentration ([1]; HaCaT stimulated with IFN-γ): 0 pg/mL; TNF-α cytokine concentration ([1]; HaCaT stimulated with IFN-γ): 0 pg/mL; IFN-γ cytokine concentration ([1]; HaCaT stimulated with PBS): 0 pg/mL; IL-1 cytokine concentration ([1]; HaCaT stimulated with PBS): 0 pg/mL; IL-2 cytokine concentration ([1]; HaCaT stimulated with PBS): 0 pg/mL; IL-4 cytokine concentration ([1]; HaCaT stimulated with PBS): 0 pg/mL; IL-5 cytokine concentration ([1]; HaCaT stimulated with PBS): 0 pg/mL; IL-6 cytokine concentration ([1]; HaCaT stimulated with PBS): 56.87 pg/mL; IL-9 cytokine concentration ([1]; HaCaT stimulated with PBS): 4.96 pg/mL; IL-10 cytokine concentration ([1]; HaCaT stimulated with PBS): 69.45 pg/mL; IL-12p70 cytokine concentration ([1]; HaCaT stimulated with PBS): 0 pg/mL; IL-13 cytokine concentration ([1]; HaCaT stimulated with PBS): 193.75 pg/mL; IL-17 cytokine concentration ([1]; HaCaT stimulated with PBS): 0 pg/mL; IL-22 cytokine concentration ([1]; HaCaT stimulated with PBS): 0 pg/mL; TNF-α cytokine concentration ([1]; HaCaT stimulated with PBS): 5.55 pg/mL; IFN-γ cytokine concentration [1, 5]: 22.77 pg/mL; IL-1 cytokine concentration [1, 5]: 0 pg/mL; IL-2 cytokine concentration [1, 5]: 0 pg/mL; IL-4 cytokine concentration [1, 5]: 0 pg/mL; IL-5 cytokine concentration [1, 5]: 0 pg/mL; IL-6 cytokine concentration [1, 5]: 158.4 pg/mL; IL-9 cytokine concentration [1, 5]: 0 pg/mL; IL-10 cytokine concentration [1, 5]: 86.04 pg/mL; IL-12p70 cytokine concentration [1, 5]: 0 pg/mL; IL-13 cytokine concentration [1, 5]: 0 pg/mL; IL-17 cytokine concentration [1, 5]: 25.98 pg/mL; IL-22 cytokine concentration [1, 5]: 0 pg/mL; TNF-α cytokine concentration [1, 5]: 0 pg/mL; secretion / expression of pro-inflammatory cytokines (supernatant) ([1]; activated human keratinocytes): able to reduce; secretion / expression of pro-inflammatory cytokines (supernatant) (primary murine T-cells; activated primary murine T-cells): able to reduce; IL-1 cytokine concentration (primary murine T-cells; [6]): 86.08 pg/mL; IL-2 cytokine concentration (primary murine T-cells; [6]): 88.9 pg/mL; IL-4 cytokine concentration (primary murine T-cells; [6]): 34.22 pg/mL; IL-5 cytokine concentration (primary murine T-cells; [6]): 221.57 pg/mL; IL-6 cytokine concentration (primary murine T-cells; [6]): 110.7 pg/mL; IL-10 cytokine concentration (primary murine T-cells; [6]): 1130.01 pg/mL; IL-13 cytokine concentration (primary murine T-cells; [6]): 0 pg/mL; IL-17 cytokine concentration (primary murine T-cells; [6]): 72.21 pg/mL; IL-21 cytokine concentration (primary murine T-cells; [6]): 40.2 pg/mL; IL-22 cytokine concentration (primary murine T-cells; [6]): 42.98 pg/mL; IL-27 cytokine concentration (primary murine T-cells; [6]): 12.5 pg/mL; TNF-α cytokine concentration (primary murine T-cells; [6]): 31.88 pg/mL; IFN-γ cytokine concentration (primary murine T-cells; [7]): 0 pg/mL; IL-1 cytokine concentration (primary murine T-cells; [7]): 61.52 pg/mL; IL-2 cytokine concentration (primary murine T-cells; [7]): 189.72 pg/mL; IL-4 cytokine concentration (primary murine T-cells; [7]): 32.24 pg/mL; IL-5 cytokine concentration (primary murine T-cells; [7]): 331.87 pg/mL; IL-6 cytokine concentration (primary murine T-cells; [7]): 223.98 pg/mL; IL-10 cytokine concentration (primary murine T-cells; [7]): 872.36 pg/mL; IL-13 cytokine concentration (primary murine T-cells; [7]): 0 pg/mL; IL-17 cytokine concentration (primary murine T-cells; [7]): 0 pg/mL; IL-21 cytokine concentration (primary murine T-cells; [7]): 69.64 pg/mL; IL-22 cytokine concentration (primary murine T-cells; [7]): 76.71 pg/mL; IL-27 cytokine concentration (primary murine T-cells; [7]): 71.85 pg/mL; TNF-α cytokine concentration (primary murine T-cells; [7]): 74.9 pg/mL; IFN-γ cytokine concentration (primary murine T-cells; [8]): 1298.02 pg/mL; IL-1 cytokine concentration (primary murine T-cells; [8]): 167.79 pg/mL; IL-2 cytokine concentration (primary murine T-cells; [8]): 98.57 pg/mL; IL-4 cytokine concentration (primary murine T-cells; [8]): 90.14 pg/mL; IL-5 cytokine concentration (primary murine T-cells; [8]): 242.24 pg/mL; IL-6 cytokine concentration (primary murine T-cells; [8]): 116.16 pg/mL; IL-10 cytokine concentration (primary murine T-cells; [8]): 1255.25 pg/mL; IL-13 cytokine concentration (primary murine T-cells; [8]): 0 pg/mL; IL-17 cytokine concentration (primary murine T-cells; [8]): 79.1 pg/mL; IL-21 cytokine concentration (primary murine T-cells; [8]): 0 pg/mL; IL-22 cytokine concentration (primary murine T-cells; [8]): 57.07 pg/mL; IL-27 cytokine concentration (primary murine T-cells; [8]): 80.09 pg/mL; TNF-α cytokine concentration (primary murine T-cells; [8]): 50.73 pg/mL
